# Reference: patent publication US9309254B2, “Pyrimidinyl-diazospiro compounds” (CONVERGENCE PHARMACEUTICALS LIMITED, priority 2012, dated 2016)
# Counter-ions that a name gives are not always drawn. Like-named read-outs stand apart in the source and are kept apart here.
# Target: T1, hNaV1.7 (Homo sapiens, UniProt Q15858)
# T1 construct: expressed in transfected cells; host or cells: HEK293
# Experiment: QPatch NaV1.7 assay
# Format: cell-based
# Conditions: HEK293-hNaV1.7 cells, QPatch16x
# Protocol: The compounds of the invention were tested in a QPatch NaV1.7 assay.
# HEK293-hNaV1.7 cells were grown in DMEM-F12+10% FBS culture media at 37° C. At a confluency of 50-70% cells were dissociated from culture flasks & triturated to ensure unicellular cell suspension; cell density was measured & adjusted to 2-3×10^6 cells/ml. Recordings were obtained using QPatch16x. The external solution was (in mM): NaCl, 128; KCl, 5; MgCl2, 2; CaCl2, 2; Glucose, 30; HEPES, 15; pH 7.3, 305-315 mOsm. Following seal formation and whole-cell access using internal solution (containing in mM: CsF, 135; EGTA/CsOH, 1/5; HEPES 10; NaCl, 10; pH 7.3, 310-320mOsM), voltage pulse protocols were applied. Initially a steady state inactivation voltage protocol was used to determine the half-maximal voltage for steady state inactivation (V1/2 SSI). Two holding voltages were used to determine test drug inhibition: −90 mV, where most of the channels are in a closed state; and V1/2 SSI, where half of the channels are inactivated. Currents were elicited every 10 seconds by stepping to a membrane potential of 0 mV for 20 ms. Four-point cumulative concentration responses were derived by determining the peak current amplitude at each concentration of test drug over 120 second application. Curves were fitted with the Hill equation yielding pIC50 values at −90 mV and V1/2 SSI holding potentials.
# [1] = holding voltage V1/2 SSI, where half of the channels are inactivated, read-out: QP Nav1.7 SSI vhalf pIC50 (converted)
# [2] = holding voltage −90 mV, where most of the channels are in a closed state, read-out: QP Nav1.7 - 90 mV pIC50 (converted)
# T1 sequence (Q15858 whole entry): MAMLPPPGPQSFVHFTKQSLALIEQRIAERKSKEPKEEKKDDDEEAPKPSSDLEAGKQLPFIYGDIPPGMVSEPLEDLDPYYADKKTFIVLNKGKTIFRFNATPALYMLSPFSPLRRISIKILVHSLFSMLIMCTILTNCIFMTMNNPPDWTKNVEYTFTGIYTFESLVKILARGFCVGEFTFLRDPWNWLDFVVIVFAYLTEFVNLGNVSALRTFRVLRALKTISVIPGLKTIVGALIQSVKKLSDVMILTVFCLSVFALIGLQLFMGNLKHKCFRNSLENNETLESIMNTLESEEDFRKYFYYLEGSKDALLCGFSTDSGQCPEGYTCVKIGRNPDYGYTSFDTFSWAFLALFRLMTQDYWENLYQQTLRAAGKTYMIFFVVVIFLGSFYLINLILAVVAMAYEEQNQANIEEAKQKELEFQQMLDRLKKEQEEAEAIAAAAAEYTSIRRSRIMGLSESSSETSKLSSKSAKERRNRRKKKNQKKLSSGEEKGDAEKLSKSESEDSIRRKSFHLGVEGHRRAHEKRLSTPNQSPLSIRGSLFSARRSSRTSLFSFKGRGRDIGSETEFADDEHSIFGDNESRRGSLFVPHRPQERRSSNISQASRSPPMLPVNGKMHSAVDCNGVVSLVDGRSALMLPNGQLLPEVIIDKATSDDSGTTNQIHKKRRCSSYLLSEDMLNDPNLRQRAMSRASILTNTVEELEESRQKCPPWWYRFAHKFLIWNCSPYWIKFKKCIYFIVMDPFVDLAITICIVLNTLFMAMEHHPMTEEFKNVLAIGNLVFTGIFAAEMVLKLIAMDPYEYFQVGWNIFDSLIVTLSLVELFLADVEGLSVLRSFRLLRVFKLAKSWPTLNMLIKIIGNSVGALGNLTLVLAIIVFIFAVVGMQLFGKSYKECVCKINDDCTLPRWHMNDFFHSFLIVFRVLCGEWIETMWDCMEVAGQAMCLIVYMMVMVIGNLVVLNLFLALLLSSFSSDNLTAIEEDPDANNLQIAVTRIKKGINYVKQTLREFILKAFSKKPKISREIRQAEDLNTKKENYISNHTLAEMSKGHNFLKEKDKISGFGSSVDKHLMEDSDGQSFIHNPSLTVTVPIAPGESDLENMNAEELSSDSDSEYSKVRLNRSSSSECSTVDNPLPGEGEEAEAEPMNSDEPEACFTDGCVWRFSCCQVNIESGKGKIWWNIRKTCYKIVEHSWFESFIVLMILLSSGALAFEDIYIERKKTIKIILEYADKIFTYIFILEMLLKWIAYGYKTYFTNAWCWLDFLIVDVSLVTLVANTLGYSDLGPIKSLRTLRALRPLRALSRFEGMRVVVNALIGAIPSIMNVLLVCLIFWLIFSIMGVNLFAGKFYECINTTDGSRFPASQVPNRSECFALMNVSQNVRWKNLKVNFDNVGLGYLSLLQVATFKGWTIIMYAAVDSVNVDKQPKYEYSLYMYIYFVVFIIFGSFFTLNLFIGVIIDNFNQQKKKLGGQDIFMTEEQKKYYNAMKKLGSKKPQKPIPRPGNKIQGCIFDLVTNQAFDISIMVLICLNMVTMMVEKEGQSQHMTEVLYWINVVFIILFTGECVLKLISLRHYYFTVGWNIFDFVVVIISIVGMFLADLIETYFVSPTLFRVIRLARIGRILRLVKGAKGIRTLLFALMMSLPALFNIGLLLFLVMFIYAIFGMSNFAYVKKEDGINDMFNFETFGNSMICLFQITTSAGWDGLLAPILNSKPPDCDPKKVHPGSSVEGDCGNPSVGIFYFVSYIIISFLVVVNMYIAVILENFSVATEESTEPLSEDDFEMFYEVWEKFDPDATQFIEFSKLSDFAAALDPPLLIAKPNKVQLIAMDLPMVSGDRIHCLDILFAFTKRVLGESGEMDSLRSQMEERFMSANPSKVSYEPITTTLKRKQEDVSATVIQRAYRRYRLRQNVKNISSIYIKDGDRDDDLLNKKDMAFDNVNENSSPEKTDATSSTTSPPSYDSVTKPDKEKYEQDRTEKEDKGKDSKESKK
IC50 [1] [µM],IC50 [2] [µM],Structure (SMILES),"QP Nav1.7 SSI vhalf pIC50 (holding voltage V1/2 SSI, where half of the channels are inactivated)"
63.1,7940,"Cc1cc(-c2ccc(C(F)(F)F)cc2)nc([C@@H]2CC[C@@]3(CCN(C)C3=O)N2)n1 (single isomer, unassigned) [Example 22, hydrochloride]",–
10,126,"CN1CC[C@@]2(CC[C@H](c3nccc(-c4ccc(C(F)(F)F)cc4)n3)N2)C1=O [Example 1, (2R,5S)-7-Methyl-2-[4-[4-(trifluoromethyl)phenyl]pyrimidin-2-yl]-1,7-diazaspiro[4.4]nonan-6-one hydrochloride]",–
63.1,398,"CN1CC[C@@]2(CC[C@@H](c3nccc(-c4ccc(C(F)(F)F)cc4)n3)N2)C1=O [Example 2, (2S,5S)-7-Methyl-2-[4-[4-(trifluoromethyl)phenyl]pyrimidin-2-yl]-1,7-diazaspiro[4.4]nonan-6-one hydrochloride]",–
31.6,158,"CN1CC[C@]2(CC[C@@H](c3nccc(-c4ccc(C(F)(F)F)cc4)n3)N2)C1=O [Example 3, (2S,5R)-7-Methyl-2-[4-[4-(trifluoromethyl)phenyl]pyrimidin-2-yl]-1,7-diazaspiro[4.4]nonan-6-one hydrochloride]",–
39.8,251,"CN1CC[C@]2(CC[C@H](c3nccc(-c4ccc(C(F)(F)F)cc4)n3)N2)C1=O [Example 4, (2R,5R)-7-Methyl-2-[4-[4-(trifluoromethyl)-phenyl]-pyrimidin-2-yl]-1,7-diazaspiro[4.4]nonan-6-one hydrochloride]",–
100,79.4,"Cc1cc(-c2ccc(C(F)(F)F)cc2)nc([C@@H]2CC[C@]3(CCN(C)C3=O)N2)n1 [Example 5, (2S,5R)-7-Methyl-2-[4-methyl-6-[4-(trifluoromethyl)phenyl]pyrimidin-2-yl]-1,7-diazaspiro[4.4]nonan-6-one hydrochloride]",–
79.4,316,"Cc1cc(-c2ccc(C(F)(F)F)cc2)nc([C@H]2CC[C@]3(CCN(C)C3=O)N2)n1 [Example 6, (2R,5R)-7-Methyl-2-[4-methyl-6-[4-(trifluoromethyl)phenyl]pyrimidin-2-yl]-1,7-diazaspiro[4.4]nonan-6-one hydrochloride]",–
2.51,39.8,"CCOc1ccc(F)c(-c2cc(C)nc([C@@H]3CC[C@]4(CCN(C)C4=O)N3)n2)c1 [Example 8, (2S,5R)-2-[4-(5-Ethoxy-2-fluoro-phenyl)-6-methyl-pyrimidin-2-yl]-7-methyl-1,7-diazaspiro[4.4]nonan-6-one hydrochloride]",–
1.58,12.6,"CCOc1ccc(F)c(-c2cc(C)nc([C@H]3CC[C@]4(CCN(C)C4=O)N3)n2)c1 [Example 9, (2R,5R)-2-[4-(5-Ethoxy-2-fluoro-phenyl)-6-methyl-pyrimidin-2-yl]-7-methyl-1,7-diazaspiro[4.4]nonan-6-one hydrochloride]",–
1.58,20,"CCOc1ccc(F)c(-c2cc(C)nc([C@H]3CC[C@@]4(CCN(C)C4=O)N3)n2)c1 [Example 10, (2R,5S)-2-[4-(5-Ethoxy-2-fluoro-phenyl)-6-methyl-pyrimidin-2-yl]-7-methyl-1,7-diazaspiro[4.4]nonan-6-one hydrochloride]",–
3.98,79.4,"CCOc1ccc(F)c(-c2cc(C)nc([C@@H]3CC[C@@]4(CCN(C)C4=O)N3)n2)c1 [Example 11, (2S,5S)-2-[4-(5-Ethoxy-2-fluoro-phenyl)-6-methyl-pyrimidin-2-yl]-7-methyl-1,7-diazaspiro[4.4]nonan-6-one hydrochloride]",–
2,20,"CCOc1ccc(F)c(-c2cc(C)nc([C@H]3CC[C@]4(CCCNC4=O)N3)n2)c1 [Example 12, hydrochloride]",–
1.58,7.94,"CCOc1ccc(F)c(-c2cc(C)nc([C@@H]3CC[C@]4(CCCNC4=O)N3)n2)c1 [Example 13, hydrochloride]",–
1.26,20,"CCOc1ccc(F)c(-c2ccnc([C@H]3CC[C@]4(CCN(C)C4=O)N3)n2)c1 [Example 14, (2R,5R)-2-[4-(5-Ethoxy-2-fluoro-phenyl)pyrimidin-2-yl]-7-methyl-1,7-diazaspiro[4.4]nonan-6-one hydrochloride]",–
12.6,126,"CCOc1ccc(F)c(-c2ccnc([C@@H]3CC[C@]4(CCN(C)C4=O)N3)n2)c1 [Example 15, (2S,5R)-2-[4-(5-Ethoxy-2-fluoro-phenyl)pyrimidin-2-yl]-7-methyl-1,7-diazaspiro[4.4]nonan-6-one hydrochloride]",–
12.6,126,"CCOc1ccc(F)c(-c2ccnc([C@@H]3CC[C@@]4(CCN(C)C4=O)N3)n2)c1 [Example 16, (2S,5S)-2-[4-(5-Ethoxy-2-fluoro-phenyl)pyrimidin-2-yl]-7-methyl-1,7-diazaspiro[4.4]nonan-6-one hydrochloride]",–
10,63.1,"CCOc1ccc(F)c(-c2ccnc([C@H]3CC[C@@]4(CCN(C)C4=O)N3)n2)c1 [Example 17, (2R,5S)-2-[4-(5-Ethoxy-2-fluoro-phenyl)pyrimidin-2-yl]-7-methyl-1,7-diazaspiro[4.4]nonan-6-one hydrochloride]",–
12.6,126,"CN1CC[C@@]2(CC[C@H](c3nccc(-c4cccc(OC(F)(F)F)c4)n3)N2)C1=O [Example 18, (2R,5S)-7-Methyl-2-[4-[3-(trifluoromethoxy)phenyl]pyrimidin-2-yl]-1,7-diazaspiro[4.4]nonan-6-one hydrochloride]",–
20,200,"CN1CC[C@@]2(CC[C@@H](c3nccc(-c4cccc(OC(F)(F)F)c4)n3)N2)C1=O [Example 19, (2S,5S)-7-Methyl-2-[4-[3-(trifluoromethoxy)phenyl]pyrimidin-2-yl]-1,7-diazaspiro[4.4]nonan-6-one hydrochloride]",–
25.1,200,"CN1CC[C@]2(CC[C@@H](c3nccc(-c4cccc(OC(F)(F)F)c4)n3)N2)C1=O [Example 20, (2S,5R)-7-Methyl-2-[4-[3-(trifluoromethoxy)phenyl]pyrimidin-2-yl]-1,7-diazaspiro[4.4]nonan-6-one hydrochloride]",–
15.8,200,"CN1CC[C@]2(CC[C@H](c3nccc(-c4cccc(OC(F)(F)F)c4)n3)N2)C1=O [Example 21, (2R,5R)-7-Methyl-2-[4-[3-(trifluoromethoxy)phenyl]pyrimidin-2-yl]-1,7-diazaspiro[4.4]nonan-6-one hydrochloride]",–
63.1,1580,"CC(C)Oc1ccc(-c2ccnc([C@H]3CC[C@]4(CCN(C)C4=O)N3)n2)cc1 [Example 23, (2R,5R)-2-[4-(4-Isopropoxyphenyl)pyrimidin-2-yl]-7-methyl-1,7-diazaspiro[4.4]nonan-6-one hydrochloride]",–
20,158,"CC(C)Oc1ccc(-c2ccnc([C@@H]3CC[C@]4(CCN(C)C4=O)N3)n2)cc1 [Example 24, (2S,5R)-2-[4-(4-Isopropoxyphenyl)pyrimidin-2-yl]-7-methyl-1,7-diazaspiro[4.4]nonan-6-one hydrochloride]",–
7.94,50.1,"CC(C)Oc1ccc(-c2ccnc([C@H]3CC[C@@]4(CCN(C)C4=O)N3)n2)cc1 [Example 25, (2R,5S)-2-[4-(4-Isopropoxyphenyl)pyrimidin-2-yl]-7-methyl-1,7-diazaspiro[4.4]nonan-6-one hydrochloride]",–
50.1,631,"CC(C)Oc1ccc(-c2ccnc([C@@H]3CC[C@@]4(CCN(C)C4=O)N3)n2)cc1 [Example 26, (2S,5S)-2-[4-(4-Isopropoxyphenyl)pyrimidin-2-yl]-7-methyl-1,7-diazaspiro[4.4]nonan-6-one hydrochloride]",–
10,63.1,"Cc1cc(-c2ccc(OC(F)(F)F)cc2)nc([C@H]2CC[C@@]3(CCN(C)C3=O)N2)n1 [Example 27, (2R,5S)-7-Methyl-2-[4-methyl-6-[4-(trifluoromethoxy)phenyl]pyrimidin-2-yl]-1,7-diazaspiro[4.4]nonan-6-one hydrochloride]",–
50.1,631,"Cc1cc(-c2ccc(OC(F)(F)F)cc2)nc([C@@H]2CC[C@@]3(CCN(C)C3=O)N2)n1 [Example 28, (2S,5S)-7-Methyl-2-[4-methyl-6-[4-(trifluoromethoxy)phenyl]pyrimidin-2-yl]-1,7-diazaspiro[4.4]nonan-6-one hydrochloride]",–

Structure (SMILES),IC50 [1] [µM],IC50 [2] [µM],"QP Nav1.7 SSI vhalf pIC50 (holding voltage V1/2 SSI, where half of the channels are inactivated)"
"Cc1cc(-c2ccc(C(F)(F)F)cc2)nc([C@H]2CC[C@@]3(CCN(C)C3=O)N2)n1.Cl [Example 7, (2R,5S)-7-Methyl-2-[4-methyl-6-[4-(trifluoromethyl)-phenyl]pyrimidin-2-yl]-1,7-diazaspiro[4.4]nonan-6-one hydrochloride]",–,126,5.7
